Here are results for 4 compounds from publication PMC6073568, “Efficient Lead Finding, Activity Enhancement and Preliminary Selectivity Control of Nuclear Receptor Ligands Bearing a Phenanthridinone Skeleton” (International Journal of Molecular Sciences, 2018).

The IC50 is the concentration needed to halve the response being measured.

In one assay the target is T1, LXRα (Homo sapiens, UniProt Q13133).
T1 construct: CMX-GAL4N-hLXRα-LBD; expressed in transfected cells; host or cells: HEK293
T1 sequence (Q13133 209-447 limits assumed): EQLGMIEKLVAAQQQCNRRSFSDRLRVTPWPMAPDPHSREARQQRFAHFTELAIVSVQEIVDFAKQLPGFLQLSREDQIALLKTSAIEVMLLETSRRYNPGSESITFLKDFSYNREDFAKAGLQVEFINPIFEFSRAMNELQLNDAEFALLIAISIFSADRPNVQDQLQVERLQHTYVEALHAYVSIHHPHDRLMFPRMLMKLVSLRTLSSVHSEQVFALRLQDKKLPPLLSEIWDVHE
Conditions: read-out: LXRα antagonistic activity (IC50); cited from earlier work.

The target in the next assay is T2, LXRβ (Homo sapiens, UniProt P55055).
T2 construct: CMX-GAL4N-hLXRβ-LBD; expressed in transfected cells; host or cells: HEK293
T2 sequence (P55055 222-460 limits assumed): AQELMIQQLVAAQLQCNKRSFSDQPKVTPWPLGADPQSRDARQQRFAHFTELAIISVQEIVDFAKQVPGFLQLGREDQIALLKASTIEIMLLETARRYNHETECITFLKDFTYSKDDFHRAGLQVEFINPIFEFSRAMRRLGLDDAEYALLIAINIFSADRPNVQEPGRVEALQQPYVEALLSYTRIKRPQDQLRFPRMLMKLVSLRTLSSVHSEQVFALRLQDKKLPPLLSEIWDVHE
As to conditions: read-out: LXRβ antagonistic activity (IC50); cited from earlier work.

The target in the next assay is T3, RORα (Homo sapiens, UniProt P35398).
T3 construct: expressed in transfected cells; host or cells: HEK293
T3 sequence (P35398 1-523): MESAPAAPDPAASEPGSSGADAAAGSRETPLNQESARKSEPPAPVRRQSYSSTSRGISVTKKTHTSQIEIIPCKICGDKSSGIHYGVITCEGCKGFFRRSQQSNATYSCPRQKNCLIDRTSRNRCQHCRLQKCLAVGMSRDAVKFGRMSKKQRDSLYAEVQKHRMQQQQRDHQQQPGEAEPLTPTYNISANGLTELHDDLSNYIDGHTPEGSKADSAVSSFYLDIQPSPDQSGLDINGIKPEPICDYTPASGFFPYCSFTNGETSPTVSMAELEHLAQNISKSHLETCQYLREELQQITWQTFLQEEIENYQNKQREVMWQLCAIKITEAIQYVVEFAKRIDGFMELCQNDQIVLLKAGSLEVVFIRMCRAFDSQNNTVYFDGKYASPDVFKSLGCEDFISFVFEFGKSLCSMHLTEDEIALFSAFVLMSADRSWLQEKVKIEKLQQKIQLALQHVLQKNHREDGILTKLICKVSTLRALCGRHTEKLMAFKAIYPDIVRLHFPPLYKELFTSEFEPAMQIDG
In words: RORα inverse agonist reporter gene assay in HEK293. Conditions: new compound 43, read-out: RORα inverse agonistic activity (IC50). The class given is cell-based.

The target of the next assay is T4, RORβ (Homo sapiens, UniProt Q92753).
T4 construct: expressed in transfected cells; host or cells: HEK293
T4 sequence (Q92753 1-459 isoform Q92753-1): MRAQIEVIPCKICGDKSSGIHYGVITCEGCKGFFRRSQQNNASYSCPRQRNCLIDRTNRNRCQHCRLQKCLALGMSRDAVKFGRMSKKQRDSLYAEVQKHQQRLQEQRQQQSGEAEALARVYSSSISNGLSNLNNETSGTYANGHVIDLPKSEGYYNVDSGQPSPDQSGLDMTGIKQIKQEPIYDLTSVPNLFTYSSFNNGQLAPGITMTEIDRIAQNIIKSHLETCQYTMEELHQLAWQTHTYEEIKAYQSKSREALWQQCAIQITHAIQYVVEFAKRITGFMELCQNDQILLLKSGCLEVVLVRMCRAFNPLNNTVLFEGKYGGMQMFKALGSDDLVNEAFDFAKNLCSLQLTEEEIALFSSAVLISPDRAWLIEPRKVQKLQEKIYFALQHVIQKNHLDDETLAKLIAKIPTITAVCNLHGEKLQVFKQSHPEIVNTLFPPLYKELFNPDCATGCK
In words: RORβ inverse agonist reporter gene assay in HEK293. The class given is cell-based. As to conditions: new compound 43, read-out: RORβ inverse agonistic activity (IC50). For orientation: Reporter assays use an easily measured gene product as a stand-in for the process of interest.

The target of another assay is T5, PR (Homo sapiens, UniProt P06401).
T5 sequence (P06401 1-933): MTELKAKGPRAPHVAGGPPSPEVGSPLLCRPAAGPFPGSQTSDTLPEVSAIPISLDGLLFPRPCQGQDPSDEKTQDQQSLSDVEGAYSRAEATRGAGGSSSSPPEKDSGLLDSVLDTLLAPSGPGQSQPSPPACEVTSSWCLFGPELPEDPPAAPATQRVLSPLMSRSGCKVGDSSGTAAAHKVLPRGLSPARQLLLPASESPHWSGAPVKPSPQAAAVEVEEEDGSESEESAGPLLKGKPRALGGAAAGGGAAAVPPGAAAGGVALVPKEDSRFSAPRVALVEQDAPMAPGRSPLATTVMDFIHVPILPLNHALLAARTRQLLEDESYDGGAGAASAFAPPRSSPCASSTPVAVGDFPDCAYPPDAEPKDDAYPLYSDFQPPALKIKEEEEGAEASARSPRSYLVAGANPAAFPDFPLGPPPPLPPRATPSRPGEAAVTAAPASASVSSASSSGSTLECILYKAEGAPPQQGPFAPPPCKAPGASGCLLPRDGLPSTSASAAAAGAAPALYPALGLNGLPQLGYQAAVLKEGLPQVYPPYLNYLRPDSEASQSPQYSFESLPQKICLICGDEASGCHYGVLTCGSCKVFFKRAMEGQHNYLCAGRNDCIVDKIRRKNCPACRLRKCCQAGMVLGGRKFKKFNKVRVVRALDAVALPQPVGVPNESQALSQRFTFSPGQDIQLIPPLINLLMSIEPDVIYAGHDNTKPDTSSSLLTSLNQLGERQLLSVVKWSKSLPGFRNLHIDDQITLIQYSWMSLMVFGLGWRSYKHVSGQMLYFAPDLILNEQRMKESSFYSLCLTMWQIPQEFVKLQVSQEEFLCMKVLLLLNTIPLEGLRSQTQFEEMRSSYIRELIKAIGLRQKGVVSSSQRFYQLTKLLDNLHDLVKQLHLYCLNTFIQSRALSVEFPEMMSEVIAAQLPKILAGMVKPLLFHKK
In words: T-47D alkaline phosphatase assay (PR antagonism). Type of assay: cell-based.

For the compound `O=c1[nH]c2ccc(C(O)(C(F)(F)F)C(F)(F)F)cc2c2ccccc12` [Compound 1], the concentration for half-maximal inhibition (IC50) at LXRα was 5 µM; at LXRβ it was 5.1 µM. Regarding `O=c1[nH]c2c(Cl)cc(C(O)(C(F)(F)F)C(F)(F)F)cc2c2ccccc12` [Compound 43, 4-Chloro-2-(1,1,1,3,3,3-hexafluoro-2-hydroxypropan-2-yl)phenanthridin-6(5H)-one], the half-maximal inhibitory concentration (IC50) is over 20 µM on RORα; over 20 µM at RORβ; 0.35 µM on PR (alkaline phosphatase, T47D cells, progesterone 1 nM, new compound 43, read-out: PR antagonistic activity (IC50)).

Consider `CCCCn1c(=O)c2ccc(OC)cc2c2cc(C(O)(C(F)(F)F)C(F)(F)F)ccc21` [Compound 23], for which, at PR, the “weaker PR activity than 12” value amounted to 5 fold. `Cn1c(=O)c2ccccc2c2cc(C(O)(C(F)(F)F)C(F)(F)F)ccc21` [Compound 13]: the IC50 at LXRβ is over 20 µM.
